Values after ≈ are worked out from the molar mass of the structure shown.
Columns and labels:
[1] = test system: tumor; conditions: Japanese Patent Kokai Application Number Sho 63-27484; cited from earlier work
[2] = test system: Enterobacter cloacae 963; assay: MIC, agar medium dilution method (Test Example 1); format: cell-based; conditions: nutrient agar
Protocol: (§1) The minimum inhibitory concentration (MIC) of thiomarinol, thiomarinol B, thiomarinol C and pseudomonic acid A (identified as "A", "B", "C" and "P", respectively) given as μg/ml, against gram-positive and gram-negative bacteria was determined by the agar medium dilution method, using a nutrient agar medium (Product of Eiken Chemical Co., Ltd.).

[3] = test system: Enterococcus faecalis 681; assay: MIC, agar medium dilution method (Test Example 1); format: cell-based; conditions: nutrient agar
Protocol: as §1

[4] = test system: Escherichia coli 609; assay: MIC, agar medium dilution method (Test Example 1); format: cell-based; conditions: nutrient agar
Protocol: as §1

[5] = test system: Escherichia coli NIHJ; assay: MIC, agar medium dilution method (Test Example 1); format: cell-based; conditions: nutrient agar
Protocol: as §1

[6] = test system: Klebsiella pneumoniae 806; assay: MIC, agar medium dilution method (Test Example 1); format: cell-based; conditions: nutrient agar
Protocol: as §1

[7] = test system: Klebsiella pneumoniae 846 (R); assay: MIC, agar medium dilution method (Test Example 1); format: cell-based; conditions: nutrient agar
Protocol: as §1

[8] = test system: Morcranella morganii 1510; assay: MIC, agar medium dilution method (Test Example 1); format: cell-based; conditions: nutrient agar
Protocol: as §1

[9] = test system: Proteus vulgaris 1420; assay: MIC, agar medium dilution method (Test Example 1); format: cell-based; conditions: nutrient agar
Protocol: as §1

[10] = test system: Pseudomonas aerucrinosa 1001; assay: MIC, agar medium dilution method (Test Example 1); format: cell-based; conditions: nutrient agar
Protocol: as §1

[11] = test system: Pseudomonas aerucrinosa No. 7; assay: MIC, agar medium dilution method (Test Example 1); format: cell-based; conditions: nutrient agar
Protocol: as §1

[12] = test system: Pseudomonas aeruginosa 3719; assay: MIC, agar medium dilution method (Test Example 1); format: cell-based; conditions: nutrient agar
Protocol: as §1

[13] = test system: Salmonella enteritidis; assay: MIC, agar medium dilution method (Test Example 1); format: cell-based; conditions: Salmonella enterica, nutrient agar
Protocol: as §1

[14] = test system: Serratia marcescens 1184; assay: MIC, agar medium dilution method (Test Example 1); format: cell-based; conditions: nutrient agar
Protocol: as §1

[15] = test system: Staphylococcus aureus 209P; assay: MIC, agar medium dilution method (Test Example 1); format: cell-based; conditions: nutrient agar
Protocol: as §1

[16] = test system: Staphylococcus aureus 535 (MRSA); assay: MIC, agar medium dilution method (Test Example 1); format: cell-based; conditions: nutrient agar
Protocol: as §1

[17] = test system: Staphylococcus aureus 56R; assay: MIC, agar medium dilution method (Test Example 1); format: cell-based; conditions: nutrient agar
Protocol: as §1

[18] = test system: Mycoplasma hyorhinis BTS 7; assay: Antimycoplasmal MIC (Test Example 2); format: cell-based; conditions: BTS7, 120 h, Chanock medium, 20% horse serum, 0.005 ml of 10^5 CFU/ml, 37° C., 5 days
Protocol: (§2) Following the same procedure as for Test Example 1, the activity of thiomarinol, thiomarinol B, thiomarinol C and pseudomonic acid A (identified as "A", "B", "C" and "P", respectively) was assayed against various species of mycoplasma. Inoculum: 0.005 ml of 10^5 CFU/ml Thiomarinol B, Thiomarinol C and Pseudomonic acid A were all assayed on Chanock medium [prepared as described in P.N.A.S., 48, 41-49 (1962) and supplemented with 20% horse serum] for all microorganisms; Culture conditions: 37° C., 5 days, slightly aerobic (BBL gas pack method [cultivation in disposable CO2 generator from Becton Dickinson Microbiology Systems, Cockeysville, Md. 2103 U.S.A.])

[19] = test system: bacteria; conditions: compared with the thiomarinol derivatives or with pseudomonic acid; cited from earlier work
[20] = test system: gram-positive and gram-negative bacteria; assay: Antibacterial activity, overall comparison; format: cell-based; conditions: for antibacterial activity compared with pseudomonic acid A: general statement
Protocol: as §1

[21] = test system: mycoplasma; assay: Anti-mycoplasmal activity, overall comparison; format: cell-based; conditions: compared with thiomarinol and pseudomonic acid A; Table 2
Protocol: Following the same procedure as for Test Example 1, the activity of thiomarinol, thiomarinol B, thiomarinol C and pseudomonic acid A (identified as "A", "B", "C" and "P", respectively) was assayed against various species of mycoplasma.

[22] = Solubility; format: physicochemical; conditions: for solubility (insoluble in): hexane and water; for solubility (soluble in): organic solvents
[23] = test system: Mycoplasma hyosynoviae S-16; assay: Antimycoplasmal MIC (Test Example 2); format: cell-based; conditions: S16, 120 h, Mucin PPLO agar medium, 15% horse serum, 0.005 ml of 10^5 CFU/ml, 37° C., 5 days
Protocol: as §2, with “microorganisms; Thiomarinol was assayed on the following media: M. hyosynoviae: Mucin PPLO* agar medium (15% horse serum supplemented) |*PPLO ( -- Pleuro -- Pneumonia- -- Like -- Organism) |PPLO Broth without CV (Difco) | 21 g |Mucin bacteriological (Difco) | 5 g |Distilled water 800 ml |Agar Noble (Difco) 12 g |Equine serum 150 ml |25% Fresh yeast extract | 50 ml” for “microorganisms;”

SMILES | MIC [2] [mg/L] | MIC [3] [mg/L] | MIC [4] [mg/L] | MIC [5] [mg/L] | MIC [6] [mg/L] | MIC [7] [mg/L] | MIC [8] [mg/L] | MIC [9] [mg/L] | MIC [10] [mg/L] | MIC [11] [mg/L] | MIC [13] [mg/L] | MIC [14] [mg/L] | MIC [15] [mg/L] | MIC [16] [mg/L] | MIC [17] [mg/L] | antibacterial activity of prior art compounds [19] | further results
O=C1CCC(=O)N(O)CCCCCNC(=O)CCC(=O)N(O)CCCCCN1 [bisucaberin] | – | – | – | – | – | – | – | – | – | – | – | – | – | – | – | – | antitumor activity [1]: exhibit antitumor activity
CC(=CC(=O)OCCCCCCCCC(=O)O)CC1OCC(CC2OC2C(C)C(C)O)C(O)C1O (stereo not drawn) [pseudomonic acid A] | > 100 | 25 (≈ 49.9 µM) | 100 (≈ 200 µM) | 100 (≈ 200 µM) | 100 (≈ 200 µM) | 100 (≈ 200 µM) | > 100 | 0.4 (≈ 0.799 µM) | > 100 | > 100 | 50 (≈ 99.9 µM) | > 100 | 0.05 (≈ 0.0999 µM) | 0.2 (≈ 0.399 µM) | 0.1 (≈ 0.2 µM) | weaker antibacterial activities than do the thiomarinol derivatives of the present invention | MIC [12]: > 100 mg/L; MIC [18]: 0.39 mg/L (≈ 0.779 µM)
C/C(=C\C(=O)OCCCCCCCCC(=O)O)C[C@@H]1OC[C@](O)(C[C@@H]2O[C@H]2[C@@H](C)[C@H](C)O)[C@@H](O)[C@H]1O [pseudomonic acid B] | – | – | – | – | – | – | – | – | – | – | – | – | – | – | – | weaker antibacterial activities than do the thiomarinol derivatives of the present invention | –
CC(=CC(=O)OCCCCCCCCC(=O)O)CC1OCC(CC=CC(C)C(C)O)C(O)C1O (stereo not drawn) [pseudomonic acid C] | – | – | – | – | – | – | – | – | – | – | – | – | – | – | – | weaker antibacterial activities than do the thiomarinol derivatives of the present invention | –
CC(=CC(=O)OCCCCC=CCCC(=O)O)CC1OCC(CC2OC2C(C)C(C)O)C(O)C1O (stereo not drawn) [pseudomonic acid D] | – | – | – | – | – | – | – | – | – | – | – | – | – | – | – | weaker antibacterial activities than do the thiomarinol derivatives of the present invention | –
C/C(=C\C(=O)OCCCCCCCC(=O)Nc1c2sscc-2[nH]c1=O)CC1OCC(C/C=C/C(C)C(C)O)C(O)C1O (stereo not drawn) [thiomarinol C] | 3.1 (≈ 4.96 µM) | 0.8 (≈ 1.28 µM) | 1.5 (≈ 2.4 µM) | 3.1 (≈ 4.96 µM) | 1.5 (≈ 2.4 µM) | 0.8 (≈ 1.28 µM) | 12.5 (≈ 20 µM) | 0.2 (≈ 0.32 µM) | 0.8 (≈ 1.28 µM) | 0.8 (≈ 1.28 µM) | 1.5 (≈ 2.4 µM) | 6.2 (≈ 9.92 µM) | ≤ 0.01 | ≤ 0.01 | ≤ 0.01 | – | MIC [12]: 0.4 mg/L (≈ 0.64 µM); MIC [18]: 1.56 mg/L (≈ 2.5 µM); antibacterial activity ([20]; compared with thiomarinol and pseudomonic acid A, Table 1): at least as good as those of thiomarinol and are, in general, significantly better than those of pseudomonic acid A; antibacterial activity compared with pseudomonic acid A [20]: significantly more potent antibacterial activity than does pseudomonic acid A; anti-mycoplasmal activity [21]: at least as good as those of thiomarinol and are, in general, significantly better than those of pseudomonic acid A; solubility (insoluble in) [22]: Insoluble in hexane and water; solubility (soluble in) [22]: Soluble in alcohols such as methanol, ethanol, propanol and butanol, as well as in dimethyl sulfoxide, dimethylformamide, chloroform, ethyl acetate, acetone and diethyl ether
C/C(=C\C(=O)OCCCCCCCC(=O)Nc1c2sscc-2[nH]c1=O)C(O)C1OCC(C/C=C/C(C)C(C)O)C(O)C1O (stereo not drawn) [thiomarinol] | 1.5 (≈ 2.34 µM) | 0.02 (≈ 0.0312 µM) | 0.8 (≈ 1.25 µM) | 0.8 (≈ 1.25 µM) | 0.8 (≈ 1.25 µM) | 0.2 (≈ 0.312 µM) | 6.2 (≈ 9.68 µM) | 0.05 (≈ 0.078 µM) | 0.2 (≈ 0.312 µM) | 0.4 (≈ 0.624 µM) | 0.4 (≈ 0.624 µM) | 3.1 (≈ 4.84 µM) | ≤ 0.01 | ≤ 0.01 | ≤ 0.01 | – | MIC [23]: 0.025 mg/L (≈ 0.039 µM); antibacterial activity compared with pseudomonic acid A [20]: significantly more potent antibacterial activity than does pseudomonic acid A; solubility (insoluble in) [22]: insoluble in hexane and water; solubility (soluble in) [22]: Soluble in alcohols such as methanol, ethanol, propanol and butanol; and soluble in dimethyl sulfoxide, dimethylformamide, chloroform, ethyl acetate, acetone and diethyl ether

— patent US5399711A, “Thiomarinol compounds” (Sankyo Company, Limited, priority 1992, dated 1995)
